Data taken from patent US6984649B1, “Pyridine derivatives” (Bayer Aktiengesellschaft, priority 2000, dated 2006).

system: A549 human lung epithelium cell line; assay: RANTES production in response to TNF-α from A549 cells; format: cell-based; settings: A549 cells, 100 ng/ml TNF-α, read-out: Cellular activity grade (A549) (Cellular IC50)
Method in brief: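 RANTES released into supernatant was measured by DELFIA-type sandwich immunoassay, Eu-labelled detection antibody, 340 nm excitation/615 nm emission, recombinant RANTES standard. Beforehand, cells seeded at 4×10^4/well received test compound (1% DMSO) for 1 h at 37 °C, followed by 24 h TNF-α (100 ng/ml) stimulation.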

| SMILES | IC50 [µM] |
| --- | --- |
| Cc1ccc(COc2cccc(O)c2-c2cc(C3CCCNC3)c(C#N)c(N)n2)cc1 (centres unmarked) [Example 2-35] | < 1 |
| N#Cc1c(C2CCCNC2)cc(-c2c(O)cccc2OCc2ccc(C(F)(F)F)cc2)nc1N (centres unmarked) [Example 2-36] | < 1 |
| N#Cc1c(C2CCCNC2)cc(-c2c(O)cccc2OCc2ccccc2F)nc1N (centres unmarked) [Example 2-37] | < 1 |
| COC(=O)c1ccc(COc2cccc(O)c2-c2cc(C3CCCNC3)c(C#N)c(N)n2)cc1 (centres unmarked) [Example 2-38] | < 1 |
| N#Cc1c(C2CCCNC2)cc(-c2c(O)cccc2OCc2ccc(Br)cc2)nc1N (centres unmarked) [Example 2-39] | < 1 |

same assay, conditions: Homo sapiens, A549, A549 cells, 100 ng/ml TNF-α, read-out: Cellular activity grade (A549) (Cellular IC50)

| SMILES | IC50 [µM] |
| --- | --- |
| N#Cc1c(C2CCCNC2)cc(-c2c(O)cccc2OCc2ccc(Cl)c(Cl)c2)nc1N (centres unmarked) [Example 2-05] | 1 to 10 |
| Cc1ccccc1COc1cccc(O)c1-c1cc(C2CCCNC2)c(C#N)c(N)n1 (centres unmarked) [Example 2-06] | 1 to 10 |
| N#Cc1c(C2CCCNC2)cc(-c2c(O)cccc2OCc2ccccc2-c2ccccc2)nc1N (centres unmarked) [Example 2-22] | 1 to 10 |
| N#Cc1c(C2CCNCC2)cc(-c2c(O)cccc2OCc2ccccc2)nc1N [Example 2-23] | 1 to 10 |
| N#Cc1c(C2CCCNC2)cc(-c2c(O)cccc2OCc2ccc(Br)cc2)nc1N (centres unmarked) [Example 2-24] | < 1 |
| N#Cc1c(C2CCCNC2)cc(-c2c(O)cccc2OCc2ccccc2F)nc1N (centres unmarked) [Example 2-25] | < 1 |
| N#Cc1c(C2CCCNC2)cc(-c2c(O)cccc2OCc2ccc(F)cc2F)nc1N (centres unmarked) [Example 2-26] | < 1 |
| N#Cc1c(C2CCCNC2)cc(-c2c(O)cccc2OCc2cccc(F)c2)nc1N (centres unmarked) [Example 2-27] | < 1 |
| N#Cc1c(C2CCCNC2)cc(-c2c(O)cccc2OCc2ccc(F)cc2)nc1N (centres unmarked) [Example 2-28] | < 1 |
| N#Cc1c(C2CCCNC2)cc(-c2c(O)cccc2OCc2ccc(F)c(F)c2)nc1N (centres unmarked) [Example 2-29] | 1 to 10 |
| COC(=O)c1ccc(COc2cccc(O)c2-c2cc(C3CCCNC3)c(C#N)c(N)n2)cc1 (centres unmarked) [Example 2-30] | < 1 |
| CC(C)(C)c1ccc(COc2cccc(O)c2-c2cc(C3CCCNC3)c(C#N)c(N)n2)cc1 (centres unmarked) [Example 2-31] | < 1 |
| N#Cc1c(C2CCCNC2)cc(-c2c(O)cccc2OCc2cccc3ccccc23)nc1N (centres unmarked) [Example 2-32] | 1 to 10 |
| N#Cc1c(C2CCCNC2)cc(-c2c(O)cccc2OCc2ccc(-c3ccccc3)cc2)nc1N (centres unmarked) [Example 2-33] | 1 to 10 |
| N#Cc1c(C2CCCNC2)cc(-c2c(O)cccc2OCc2ccc(Cl)cc2Cl)nc1N (centres unmarked) [Example 2-34] | 1 to 10 |
| N#Cc1c(CCN)cc(-c2c(O)cccc2OCc2ccccc2)nc1N [Example 2-40] | < 1 |
| N#Cc1c(C2CCCNC2)cc(-c2c(O)cccc2OCCc2ccccc2)nc1N (centres unmarked) [Example 2-41] | < 1 |
| N#Cc1c(C2CCCNC2)cc(-c2c(O)cccc2OCc2ccccn2)nc1N (centres unmarked) [Example 2-42] | 1 to 10 |
| N#Cc1c(C2CCCNC2)cc(-c2c(O)cccc2OCc2cccnc2)nc1N (centres unmarked) [Example 2-43] | < 1 |
| N#Cc1c(C2CCCNC2)cc(-c2c(O)cccc2OCc2ccncc2)nc1N (centres unmarked) [Example 2-44] | < 1 |
| N#Cc1c(C2CCCNC2)cc(-c2c(O)cccc2OCc2ccc3ccccc3n2)nc1N (centres unmarked) [Example 2-45] | < 1 |
| N#Cc1c(C2CCCNC2)cc(-c2c(O)cccc2OCCC(c2ccccc2)c2ccccc2)nc1N (centres unmarked) [Example 2-46] | 1 to 10 |
| N#Cc1c(C2CCCNC2)cc(-c2c(O)cccc2OCc2csc3ccc(Cl)cc23)nc1N (centres unmarked) [Example 2-47] | 1 to 10 |
| N#Cc1c(C2CCCNC2)cc(-c2c(O)cccc2OCc2ncon2)nc1N (centres unmarked) [Example 2-48] | < 1 |
| Cc1cc(COc2cccc(O)c2-c2cc(C3CCCNC3)c(C#N)c(N)n2)no1 (centres unmarked) [Example 2-49] | < 1 |

| SMILES | IC50 [µM] |
| --- | --- |
| N#Cc1c(C2CCCNC2)cc(-c2c(O)cccc2OCCCc2ccccc2)nc1N (centres unmarked) [Example 2-50] | < 1 |
| N#Cc1c(C2CCCNC2)cc(-c2c(O)cccc2OCC(=O)c2ccccc2)nc1N (centres unmarked) [Example 2-51] | < 1 |
| N#Cc1c(C2CCNCC2)cc(-c2c(O)cccc2OCCc2ccccc2)nc1N [Example 2-52] | < 1 |
| N#Cc1c(C2CCCNC2)cc(-c2c(O)cccc2OCC2CCCCC2)nc1N (centres unmarked) [Example 2-53] | < 1 |
| CC(C)Oc1cccc(O)c1-c1cc(C2CCCNC2)c(C#N)c(N)n1 (centres unmarked) [Example 2-54] | < 1 |
| CCCOc1cccc(O)c1-c1cc(C2CCCNC2)c(C#N)c(N)n1 (centres unmarked) [Example 2-55] | < 1 |
| C=CCOc1cccc(O)c1-c1cc(C2CCCNC2)c(C#N)c(N)n1 (centres unmarked) [Example 2-56] | < 1 |
| COc1cccc(O)c1-c1cc(C2CCCNC2)c(C#N)c(N)n1 (centres unmarked) [Example 2-57] | < 1 |
| CCOc1cccc(O)c1-c1cc(C2CCCNC2)c(C#N)c(N)n1 (centres unmarked) [Example 2-58] | < 1 |
| CC(C)COc1cccc(O)c1-c1cc(C2CCCNC2)c(C#N)c(N)n1 (centres unmarked) [Example 2-59] | < 1 |
| CCCCCOc1cccc(O)c1-c1cc(C2CCCNC2)c(C#N)c(N)n1 (centres unmarked) [Example 2-60] | < 1 |
| CN1CCCC(c2cc(-c3ccccc3O)nc(N)c2C#N)C1 (centres unmarked) [Example 3-03] | < 1 |
| CCCN1CCCC(c2cc(-c3ccccc3O)nc(N)c2C#N)C1 (centres unmarked) [Example 3-04] | 1 to 10 |
| N#Cc1c(C2CCCN(Cc3ccccc3)C2)cc(-c2ccccc2O)nc1N (centres unmarked) [Example 3-05] | < 1 |
| N#Cc1c(C2CCCN(CCc3ccccc3)C2)cc(-c2ccccc2O)nc1N (centres unmarked) [Example 3-06] | 1 to 10 |
| COc1ccc(CN2CCCC(c3cc(-c4c(O)cccc4O)nc(N)c3C#N)C2)cc1 (centres unmarked) [Example 3-07] | 1 to 10 |
| COc1ccc(CN2CCCC(c3cc(-c4c(O)cccc4OCC4CC4)nc(N)c3C#N)C2)cc1 (centres unmarked) [Example 3-08] | > 10 |
| Nc1nc(-c2c(O)cccc2OCc2ccccc2)cc(C2CCCNC2)c1CO (centres unmarked) [Example 12-02] | 1 to 10 |
| CCCOc1cccc(O)c1-c1cc(C2CCCNC2)c(CO)c(N)n1 (centres unmarked) [Example 12-03] | < 1 |
| CC(C)(C)COc1cccc(O)c1-c1cc(C2CCCNC2)c(CO)c(N)n1 (centres unmarked) [Example 12-04] | < 1 |
| Nc1nc(-c2c(O)cccc2OCC2CC2)cc(C2CCNCC2)c1CO [Example 12-05] | < 1 |
| CCCOc1cccc(O)c1-c1cc(C2CCNCC2)c(CO)c(N)n1 [Example 12-06] | < 1 |
| CC(C)CCCOc1cccc(O)c1-c1cc(C2CCNCC2)c(CO)c(N)n1 [Example 12-07] | < 1 |
| O=C1Nc2nc(-c3c(O)cccc3F)cc(C3CCCNC3)c2CO1 (centres unmarked) [Example 18-07] | < 1 |
| O=C1Nc2nc(-c3ncccc3O)cc(C3CCCNC3)c2CO1 (centres unmarked) [Example 18-08] | < 1 |

| SMILES | IC50 [µM] |
| --- | --- |
| Cc1cc(-c2c(O)cccc2OCC2CC2)nc2c1COC(=O)N2 [Example 18-09] | < 1 |
| O=C1Nc2nc(-c3c(O)cccc3OCc3ccccc3)cc(C3CCCNC3)c2CO1 (centres unmarked) [Example 18-10] | < 1 |
| CCCOc1cccc(O)c1-c1cc(C2CCCNC2)c2c(n1)NC(=O)OC2 (centres unmarked) [Example 18-11] | < 1 |
| O=C1Nc2nc(-c3c(O)cccc3O)cc(C3CCNCC3)c2CO1 [Example 18-12] | > 10 |
| O=C1Nc2nc(-c3c(O)cccc3OCC3CC3)cc(C3CCNCC3)c2CO1 [Example 18-13] | < 1 |
| CCCOc1cccc(O)c1-c1cc(C2CCNCC2)c2c(n1)NC(=O)OC2 [Example 18-14] | < 1 |
| CC(C)CCCOc1cccc(O)c1-c1cc(C2CCNCC2)c2c(n1)NC(=O)OC2 [Example 18-15] | < 1 |
| O=C1Nc2nc(-c3c(O)cccc3OCc3ccccc3)cc(C3CCNCC3)c2CO1 [Example 18-16] | 1 to 10 |
| CC(=O)NCc1c(C2CCCNC2)cc(-c2ccccc2O)nc1N (centres unmarked) [Example 23-04] | < 1 |
| Nc1nc(-c2ccccc2O)cc(C2CCCNC2)c1CNC(=O)C1CC1 (centres unmarked) [Example 23-05] | < 1 |
| CCC(=O)NCc1c(C2CCCNC2)cc(-c2ccccc2O)nc1N (centres unmarked) [Example 23-06] | 1 to 10 |
| CC(=O)NCc1c(C2CCNCC2)cc(-c2c(O)cccc2OCC2CC2)nc1N [Example 23-07] | < 1 |
| CC(C)OC(=O)NCc1c(C2CCCNC2)cc(-c2c(O)cccc2OCC2CC2)nc1N (centres unmarked) [Example 23-08] | < 1 |
| CC(C)COC(=O)NCc1c(C2CCCNC2)cc(-c2c(O)cccc2OCC2CC2)nc1N (centres unmarked) [Example 23-09] | < 1 |
| CC(C)(C)COC(=O)NCc1c(C2CCCNC2)cc(-c2c(O)cccc2OCC2CC2)nc1N (centres unmarked) [Example 23-10] | < 1 |
| CN(C)C(=O)NCc1c(C2CCCNC2)cc(-c2c(O)cccc2OCC2CC2)nc1N (centres unmarked) [Example 23-11] | < 1 |
| CCCNC(=O)NCc1c(C2CCCNC2)cc(-c2c(O)cccc2OCC2CC2)nc1N (centres unmarked) [Example 23-12] | < 1 |
| NC(=O)NCc1c(C2CCCNC2)cc(-c2c(O)cccc2OCC2CC2)nc1N (centres unmarked) [Example 23-13] | < 1 |
| Nc1nc(-c2c(O)cccc2OCC2CC2)cc(C2CCCNC2)c1CNC(=O)Nc1ccccc1 (centres unmarked) [Example 23-14] | < 1 |
| Nc1nc(-c2c(O)cccc2OCC2CC2)cc(C2CCCNC2)c1CNC(=S)Nc1ccccc1 (centres unmarked) [Example 23-15] | < 1 |
| CC(C)OC(=O)N1Cc2c(C3CCCNC3)cc(-c3c(O)cccc3OCC3CC3)nc2NC1=O (centres unmarked) [Example 24-05] | < 1 |
| CC(C)COC(=O)N1Cc2c(C3CCCNC3)cc(-c3c(O)cccc3OCC3CC3)nc2NC1=O (centres unmarked) [Example 24-06] | < 1 |
| CC(C)(C)COC(=O)N1Cc2c(C3CCCNC3)cc(-c3c(O)cccc3OCC3CC3)nc2NC1=O (centres unmarked) [Example 24-07] | < 1 |
| CN(C)C(=O)N1Cc2c(C3CCCNC3)cc(-c3c(O)cccc3OCC3CC3)nc2NC1=O (centres unmarked) [Example 24-08] | < 1 |
| NC(=O)N1Cc2c(C3CCCNC3)cc(-c3c(O)cccc3OCC3CC3)nc2NC1=O (centres unmarked) [Example 24-10] | < 1 |
